Assay results reported in US20160272953A1, “Activated Sugars” (ZuChem, Inc., priority 2010, published 2016).

What was measured:
[1] = target: T1, wild-type P. furiosus enzyme (Pyrococcus furiosus, UniProt Q9HHB6); assay: GalK activity by ATP to ADP conversion (HPLC), wild-type enzyme; format: biochemical; settings: 200 mM sugar, 100 mM ATP, 1 ug/ml enzyme, 60° C., 20 hours
T1 construct: 6-His (N); made in house; host or cells: E. coli
Method: The reaction of sugars with the wild type and mutant sugar-1-kinse such as those from Pyrococcus furiousus can also be monitored by following ATP consumption in the reaction. The amount of ATP consumption directly correlates with the amount of sugar-1-kinase produced. For example, to produce additional sugar-1-phosphates a series of experiments were carried out as follows, In a reaction mix containing 50 mM sodium phosphate buffer at pH 7.5, 100 mM ATP, 200 mM of the sugar being tested, 5mM MgC12 either 1 ug/ml of either the PK27 mutant or wild-type P. furiosus enzyme were added. The reaction was incubated at 60° C. for 20 hours. ATP and ADP concentrations were analyzed by HPLC using a Supelcosil LC-18-T column with a flow rate of 1.0 mL/min of 0.05 M. KH2P04/4 mM tetrabutylammonium hydrogen sulfate and a linear gradient solvent program of 0-30% methanol over 30 min. The percent conversion of ATP to ADP was calculated. Sugar-1-phosphate was analyzed by HPLC using Supelcosil LC-SAX column 0.05 M K-phosphate buffer, pH 6.0
GalK activity by ATp to ADp conversion, 20 h. Percentages indicate degree reaction proceeded to completion within 20 hours.

[2] = system: Sugar-1-kinase-P; assay: One-pot reaction, first step: phosphorylation by Sugar-1-kinase-P (DNS assay, TLC); format: biochemical, Pyrococcus furiosus; settings: 8 mM sugar, 12 mM ATP, first 60 minutes
Method: (§1) Initial coupling of the reaction was tested for 1-pot synthesis of NDP-sugars. The reaction was started with 12 mM ATP, 3.5 mM MgCl2, and 8 mM of either L-Glucose or D-galactose. Partially purified Sugar-1-kinase-P was added to the mixture and a sample was taken at 0 and 60 minutes. After 60 minutes, dTTP or UTP (8 mM), 20 μL nucleotidyltransferase-S, and 2 μL of commercially available thermostable pyrophosphatase were added to the reaction and samples were taken at different time points and analyzed by TLC as shown in FIG. 7-1. […] Upon addition of the second enzyme and nucleotide, the formation of dTDP-D-galactose and dTDP-L-glucose began. The sugar nucleotides were more clearly visualized by UV, but can also been seen in the KMnO4 stained TLC plates in FIG. 6-1.

[3] = system: Sugar-1-kinase-P and nucleotidyltransferase-S; assay: One-pot coupled sugar-1-kinase / nucleotidyltransferase reaction (TLC); format: biochemical; settings: for conversion to dTDP-sugar, estimated by TLC: dTTP 8 mM as nucleotide donor
Method: as §1
The conversion is estimated to be greater than 80% based on the loss of Gal-1-P and appearance of dTDP-Gal on TLC. The reaction with L-glucose and dTTP was also successful, however, the conversion was lower and estimated to be 20% by TLC.

[4] = system: nucleotidyltransferase-S; assay: Nucleotidyltransferase-S activity with Gal-1-P and dTTP (TLC and malachite green); format: biochemical, Streptococcus thermophilus; settings: 7 mM Gal-1-P, 7 mM dTTP, 0.1 U pyrophosphatase
Method: The nucleotidyltransferase-S enzyme was chosen for further study due to its high expression in E. coli. Nucleotidyltransferase activity was measured with the commercially available substrate D-galactose-1-phosphate (Gal-1-P). This is not the natural substrate of homologous nucleotidyltransferases, which is D-glucose-1-phosphate. Nucleotidyltransferase-S was incubated with 7 mM Gal-1-P, 7 mM dTTP, and 0.1 U of pyrophosphatase. The reaction was monitored by two different methods. […] The second method of assay was a malachite green based inorganic phosphate assay. When dTTP is coupled to a Sugar-1-phosphate it releases pyrophosphate which is broken down to pyrophosphatase to 2 molecules of inorganic phosphate.

[5] = system: EP-P2; assay: Nucleotidylyltransferase substrate specificity by TLC, EP-P2; format: biochemical, P. furiousus; settings: 90° C., 6 mM substrate
Description: (§2) A fourth nucleotidlylytransferaseenzyme has been cloned from P. furiousus (EP-P2) that has previously been shown capable of converting the only commercially available L-sugar-1-phosphate (L-fucose-1-P),[47] transferring 82% to produce UDP-L-Fucose as determined by ESI-MS. EP-P2 additionally has a broad activity range on 6 other D-sugar-1-phosphates. This enzyme was cloned as a His-tag fusion and purified by IMAC. Since we had 4 different enzymes (EP-S, EP-T, EP-P, and EP-P2) with different characteristics and substrate specificities, experiments were designed to test the substrate specificities on purified nucleotidlylytransferase enzyme and pure substrates. Reactions with each of the 4 nucleotidlylytransferase enzymes were set up using 4 different sugar-1-phosphates and 2 different nucleotides (32 reactions total), with each enzyme incubated near its optimal temperature. In a total volume of 200 μL the reactions contained 25 μL of purified enzyme, 5 mM MgCl2, 6 mM nucleotide, 6 mM sugar-1-phosphate, 4 U thermophilic pyrophosphatase (commercially available). The 4 sugar-1-phosphates were D-glucose-1-phosphate, L-glucose-1-phosphate, D-galactose-1-phosphate, and D-mannose-1-phosphate, while the 2 nucleotides chosen were dTTP and UTP. EP-P and EP-P2 were incubated at 90° C., EP-T at 65° C., and EP-S at 45° C. Samples were taken at the time of enzyme addition and every hour for three hours and then analyzed by TLC using 80% aqueous acetonitrile +10 mM TBAHS; visualized by UV and stained in KMnO4.
The UV visible spots were circled in black for FIG. 6-3 to aid in visualization as only the nucleotides and nucleotide-activated sugars are UV active. The upper left plates show TLC of standard compounds. […] To our knowledge these are the first examples of commercially viable dTDP-L-glucose enzymatic production. […] EP-S had good activity on both D-glu-1P and D-mann-1P. EP-P and EP-T both were only active on D-glucose-1P with UTP as the nucleotide. […] Furthermore, many of the reactions proceeded to completion by the first time point analyzed.

[6] = system: EP-T; assay: Nucleotidylyltransferase substrate specificity by TLC, EP-T; format: biochemical, Thermus thermophilus; settings: 65° C., 6 mM substrate
Description: as §2, with “In a total volume of 200 μL the reactions contained 25 μL of purified enzyme, 5 mM MgCl2, 6 mM nucleotide, 6 mM sugar-1-phosphate, 4 U thermophilic pyrophosphatase (commercially available). The 4 sugar-1-phosphates were D-glucose-1-phosphate, L-glucose-1-phosphate, D-galactose-1-phosphate, and D-mannose-1-phosphate, while the 2 nucleotides chosen were dTTP and UTP. EP-P and EP-P2 were incubated at 90° C., EP-T at 65° C., and EP-S at 45° C.” left out
(§3) The UV visible spots were circled in black for FIG. 6-3 to aid in visualization as only the nucleotides and nucleotide-activated sugars are UV active. […] Furthermore, many of the reactions proceeded to completion by the first time point analyzed.

[7] = system: EP-P; assay: Nucleotidylyltransferase substrate specificity by TLC, EP-P; format: biochemical, Pyrococcus furiosus; settings: UTP, 90° C., 6 mM substrate
Description: as §2, with “In a total volume of 200 μL the reactions contained 25 μL of purified enzyme, 5 mM MgCl2, 6 mM nucleotide, 6 mM sugar-1-phosphate, 4 U thermophilic pyrophosphatase (commercially available). The 4 sugar-1-phosphates were D-glucose-1-phosphate, L-glucose-1-phosphate, D-galactose-1-phosphate, and D-mannose-1-phosphate, while the 2 nucleotides chosen were dTTP and UTP. EP-P and EP-P2 were incubated at 90° C., EP-T at 65° C., and EP-S at 45° C.” left out
as §3

[8] = system: EP-S; assay: Nucleotidylyltransferase substrate specificity by TLC, EP-S; format: biochemical, Streptococcus thermophilus; settings: UTP, 45° C., 6 mM substrate
Description: as §2, with “In a total volume of 200 μL the reactions contained 25 μL of purified enzyme, 5 mM MgCl2, 6 mM nucleotide, 6 mM sugar-1-phosphate, 4 U thermophilic pyrophosphatase (commercially available). The 4 sugar-1-phosphates were D-glucose-1-phosphate, L-glucose-1-phosphate, D-galactose-1-phosphate, and D-mannose-1-phosphate, while the 2 nucleotides chosen were dTTP and UTP. EP-P and EP-P2 were incubated at 90° C., EP-T at 65° C., and EP-S at 45° C.” left out
as §3

[9] = target: T2, E. coli GalKMLYH (Escherichia coli, UniProt P0A6T3, D325E/M173L/Y371H); assay: GalKMLYH conversion of L-sugars at 16° C.; format: biochemical; settings: 5 hrs of incubation, partially purified cell extract
T2 construct: made in house; host or cells: E. coli
Method: The GalKMLYH enzyme was finally tested at 16° C. for the conversion of several other L-sugars using partially purified cell extract from the overexpressing E. coli strain and typical reaction conditions.

[10] = system: EP-P2; settings: determined by ESI-MS; cited from earlier work
[11] = system: Sugar-1-kinase-S; assay: Time course conversion of alternative substrates by Sugar-1-kinase-S; format: biochemical, Streptococcus thermophilus; settings: 45° C., ~300 minutes, partially purified cell extract
[12] = target: T3, WT Sugar-1-kinase-P (Pyrococcus furiosus, UniProt Q9HHB6); assay: Substrate specificity of purified WT Sugar-1-kinase-P (DNS assay); format: biochemical; settings: 8 mM sugar, 2.4 mg/ml enzyme, 12 mM ATP, 5 mM MgCl2, pH 7.5 phosphate buffer
T3 construct: 6-His (N); made in house; host or cells: E. coli
Method: Often, when applying protein engineering to activity on a new substrate the resulting enzyme has relaxed substrate specificity which we wanted to achieve. The purified Sugar-1-kinase-PK27 was then tested for the conversion of a variety of sugars and compared to purified WT Sugar-1-kinase-P. The reactions were setup with 8 mM of different sugars (L-ribose, L-galactose, L-glucose, L-arabinose, L-xylose, L-rhamnose, L-mannose, L-gulose, L-fucose, and 6-Azido-D-galactose), 2.4 mg/ml enzyme, 12 mM ATP, and 5 mM MgCl2 in pH 7.5 phosphate buffer. Samples were taken every hour and analyzed by DNS assay (FIG. 4-5A).

[13] = target: engineered E. coli GalKMLYH (Escherichia coli, UniProt P0A6T3, D325E/M173L/Y371H); settings: substrate 1.5 g/L, purified enzyme 0.6 g/L; cited from earlier work

T1 sequence (Q9HHB6 whole entry): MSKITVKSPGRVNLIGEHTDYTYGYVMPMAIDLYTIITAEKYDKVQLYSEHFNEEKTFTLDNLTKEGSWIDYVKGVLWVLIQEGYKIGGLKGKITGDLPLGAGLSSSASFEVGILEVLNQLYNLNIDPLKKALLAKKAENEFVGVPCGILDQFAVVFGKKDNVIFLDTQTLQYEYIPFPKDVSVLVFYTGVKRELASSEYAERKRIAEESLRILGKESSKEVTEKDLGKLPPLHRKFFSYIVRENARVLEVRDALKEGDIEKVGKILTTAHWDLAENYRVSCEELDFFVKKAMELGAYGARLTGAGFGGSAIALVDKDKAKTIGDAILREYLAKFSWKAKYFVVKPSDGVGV
T3 sequence (Q9HHB6 whole entry): as above

Compound: O=C[C@H](O)[C@@H](O)[C@@H](O)[C@H](O)CO [D-Galactose]
- degree reaction proceeded to completion (ATP to ADP conversion), WT Pyrococcus furiosus [1]: 90%
- conversion to sugar-1-phosphate [2]: completely converted
- conversion to dTDP-sugar, estimated by TLC [3]: greater than 80%

Compound: C[C@@H](O)[C@H](O)[C@H](O)[C@@H](O)C=O [D-fucose]
- degree reaction proceeded to completion (ATP to ADP conversion), WT Pyrococcus furiosus [1]: 78%

Compound: O=P(O)(O)O[C@H]1O[C@H](CO)[C@H](O)[C@H](O)[C@H]1O [D-galactose-1-phosphate]
- activity with substrate [4]: active

Compound: O=P(O)(O)O[C@H]1O[C@H](CO)[C@@H](O)[C@H](O)[C@H]1O [D-glu-1P, D-glucose-1-phosphate]
- activity on sugar-1-phosphate ([5]; dTTP): showed activity
- activity on sugar-1-phosphate ([6]; UTP): only active
- activity on sugar-1-phosphate ([6]; dTTP): converted
- activity on sugar-1-phosphate [7]: only active
- activity on sugar-1-phosphate [8]: good activity

Compound: O=P(O)(O)O[C@H]1O[C@H](CO)[C@@H](O)[C@H](O)[C@@H]1O [D-mannose-1P, D-mannose-1-phosphate]
- activity on sugar-1-phosphate ([5]; dTTP): showed activity
- activity on sugar-1-phosphate [8]: good activity

Compound: O=C[C@@H](O)[C@@H](O)[C@H](O)[C@H](O)CO [D-mannose]
- degree reaction proceeded to completion (ATP to ADP conversion), WT Pyrococcus furiosus [1]: 54%

Compound: O=C[C@H](O)[C@@H](O)[C@H](O)CO [D-xylose]
- degree reaction proceeded to completion (ATP to ADP conversion), WT Pyrococcus furiosus [1]: 50%

Compound: O=C[C@H](O)[C@@H](O)[C@@H](O)CO [L-arabinose]
- activity of GalK mutant on substrate [9]: did not display significant activity

Compound: C[C@@H]1O[C@H](OP(=O)(O)O)[C@@H](O)[C@H](O)[C@@H]1O [L-fucose-1-P]
- transfer to UDP-L-Fucose [10]: 82%

Compound: C[C@H](O)[C@@H](O)[C@@H](O)[C@H](O)C=O [L-fucose]
- degree reaction proceeded to completion (ATP to ADP conversion), WT Pyrococcus furiosus [1]: 40%
- activity of GalK mutant on substrate [9]: did not display significant activity

Compound: O=P(O)(O)OC1OC(CO)C(O)C(O)C1O [L-glu-1P, L-glucose-1-phosphate]
- activity on sugar-1-phosphate ([5]; UTP): did not appear to appreciably convert
- activity on sugar-1-phosphate ([5]; dTTP): showed activity

Compound: O=C[C@@H](O)[C@H](O)[C@@H](O)[C@@H](O)CO [L-glucose]
- activity of GalK mutant on substrate [9]: did not display significant activity
- conversion to sugar-1-phosphate [2]: completely converted
- reaction completion [11]: 95-100%
- activity on sugar [12]: displayed activity
- conversion to 1-phosphate [13]: 25%
- conversion to dTDP-sugar, estimated by TLC [3]: ~20%

Compound: O=C[C@@H](O)[C@@H](O)[C@H](O)[C@@H](O)CO [L-gulose]
- activity of GalK mutant on substrate [9]: did not display significant activity

Compound: O=C[C@H](O)[C@H](O)[C@@H](O)[C@@H](O)CO [L-mannose]
- activity of GalK mutant on substrate [9]: did not display significant activity

Compound: C[C@H](O)[C@H](O)[C@@H](O)[C@@H](O)C=O [L-rhamnose]
- activity of GalK mutant on substrate [9]: did not display significant activity

Compound: O=C[C@@H](O)[C@@H](O)[C@@H](O)CO [L-ribose]
- activity of GalK mutant on substrate [9]: did not display significant activity

Compound: O=C[C@@H](O)[C@H](O)[C@@H](O)CO [L-xylose]
- activity of GalK mutant on substrate [9]: did not display significant activity

Compound: O=c1ccn([C@@H]2O[C@H](COP(=O)(O)OP(=O)(O)OP(=O)(O)O)[C@@H](O)[C@H]2O)c(=O)[nH]1 [UTP]
- outcome as alternative nucleotide donor ([3]; 8 mM, one-pot coupled reaction): did not result in a successfully coupled reaction
